What is called microsomal CLint is the capacity of the preparation to metabolise the compound, expressed as a volume cleared per time. A lower microsomal CLint goes with greater metabolic stability. The term half-life denotes how long it takes for the measured level to halve. Read a high half-life as slow loss.

The results in this text go back to article PMC11899342, “Novel Triazeneindole Antibiotics: Synthesis and Hit-to-Lead Optimization” (International Journal of Molecular Sciences, 2025).

The series can be described thus: Stability in rat liver microsomes. Format: in vitro ADME. Particulars: NADPH. The method, then: The liver metabolism of the substance was studied in the microsomal fractions of human and rat livers (XenoTech HMMCPL, RTMCPL, Kansas City, KS, USA) in the presence of the cofactor of the oxidative enzymes NADPH (AppliChem, Darmstadt, Germany).
The plate was incubated in a thermal shaker for 10 min at 400 rpm and 37 °C; then, 2.4 µL of 100× stocks of the tested substance was added into each well. A total of 30 µL of 8× cofactor solution was added to each experimental well (two replicates), 30 µL of deionized water was added to one control well, and all wells were mixed three times using a multichannel pipette with a volume of 100 µL. After mixing, the plate was placed in a thermal shaker at 400 rpm and 37 °C. The reactions were terminated at the following time points—0, 5, 10, 15, 20, and 30 min—by transferring 30 µL of the reaction mixture from the corresponding well to 1.1 mL microtubes and adding 180 µL of acetonitrile with internal standard 200 ng/mL tolbutamide (Fluka, Switzerland). To evaluate the stability of the substance in the microsomes without the cofactor, two aliquots were taken from the control well, and the reactions were terminated at 0 and 30 min time points. […] Then, the samples were centrifuged for 10 min at 1500× g, and 150 μL of the supernatant was taken for UPLC–MS/MS analysis.
For orientation: Microsomes from liver hold many membrane-bound enzymes, among them those of drug oxidation.

In the case of `CCOC(=O)c1[nH]c2cc(F)ccc2c1/N=N/N1CCCC1` [BX-SI043, Ethyl (E)-6-fluoro-3-(pyrrolidin-1-yldiazenyl)-1H-indole-2-carboxylate], where the note is “pH 7.4, rat liver microsomes”, the microsomal CLint is 2140 µL/min/mg. Also, for the setting “rat liver microsomes”, the “Remaining after 30 min” value turned out to be 0.00%. The t1/2 (rat liver microsomes, listed as ВХSI043) was determined as 1.30 min. The molecule also displayed a half-life (rat, liver microsomes, pH 7.4, rat liver microsomes) of 1.4 min.
